Legend:
Assay type in all cases: in vivo
[1] = test system: 2nd-instar larvae of Chilo suppressalis (Walker); assay: Joint toxicity of I-72 + abamectin, rice stalk spraying, Example 7, Table 7; details: Chilo suppressalis, resistant 2nd-instar larvae, 72 h, A = compound I-72, B = abamectin, read-out: LC50
Description: Test target: 2nd-instar larvae of Chilo suppressalis (Walker). The insect source was collected from Nanchang, Jiangxi Province, and it is the 11th generation continuously cultured indoors, with a relatively high resistance level to amide pesticides such as chlorantraniliprole.
Test conditions: temperature: 25-27° C., humidity: RH 60%, and illumination: L:D=14:10
Preparation method: the test pesticides were accurately weighed respectively with an electronic analytical balance. After the two technical materials were respectively added into an appropriate amount of solvent and completely dissolved, the stock solution of the required concentration was prepared with water containing 0.1% Tween 80. The stock solutions of the two active ingredients were mixed in a certain ratio to prepare a mixed solution, which was then diluted respectively into a series of pesticide solutions with a certain concentration gradient according to the experimental design dosage.
Experimental method: the spraying method was adopted. […] The corrected mortality rate was calculated using the Abbott's formula, and the DPS data processing software was used for statistical analysis to calculate the toxicities (LC50 values) of the single test pesticides and the mixtures under the test ratios. […]

[2] = test system: adult Bemisia tabaci (Gennadius); assay: Joint toxicity of I-72 + abamectin, seedling spraying, Example 13, Table 13; details: Bemisia tabaci; adults, kidney bean seedling spraying, 72 h; A = compound I-72, B = abamectin; read-out: LC50
Excerpt: Test subject: adult Bemisia tabaci (Gennadius), a sensitive strain reared indoors.
Experimental method: the spraying method was adopted. The kidney bean seedlings cultivated in the greenhouse were selected and evenly sprayed with the pesticide solution in the order from low dosage to high dosage according to the experimental design. After natural air-drying in the shade, a self-made glass cover was put on, and the test insects were introduced, with 20-30 insects for each treatment and 3 replicates. In addition, a blank control was set up. The number of dead and live insects was investigated 72 hours later. The corrected mortality rate was calculated using the Abbott's formula, and the DPS data processing software was used for statistical analysis to calculate the toxicities (LC50 values) of the single test pesticides and the mixtures under the test ratios.
The test conditions, the preparation of the pesticide solution and the evaluation method were the same as those in Example 1.
The test subject, the test method, the test conditions, the preparation of the pesticide solution and the evaluation method were the same as those in Example 12.

[3] = test system: second-instar larvae of Meloidogyne incognita; assay: In vitro joint toxicity of I-72 + fluopyram, 24-well plate, Example 32, Table 32; details: A = I-72, B = fluopyram, 24-well plate, 25° C., 48 hours, read-out: LC50
Description: Test target: second-instar larvae of Meloidogyne incognita, a sensitive strain reared in a greenhouse.
(§1) Preparation of the pesticide solution: according to different test requirements, the test samples were accurately weighed respectively with an electronic analytical balance. The technical pesticides were dissolved in acetone, and then diluted with 0.1% Tween 80 water into a series of pesticide solutions with a certain concentration gradient according to the experimental design dosage.
Experimental method: the prepared pesticide solutions were added to a 24-well plate in the order from low dosage to high dosage according to the experimental design. In each well of each treatment, 50 nematodes were placed. Each drug had 5 concentrations set, with 3 replicates. After the treatment, the 24-well plate was placed in a constant temperature incubator at 25° C. In addition, a blank control group was set up. The number of dead and live insects was investigated 48 hours later. […] Then, the co-toxicity coefficient of each ratio was calculated using the Sun Y-P method to evaluate the mixing effect (the same as in Example 1).

[4] = test system: adult Tetranychus cinnabarinus (Boisduval); assay: Joint toxicity of I-72 + fenpropathrin, Example 39, Table 39; details: A = compound I-72, B = fenpropathrin, potted-seedling spraying, 72 hours, read-out: LC50
Description: Test target: adult Tetranychus cinnabarinus (Boisduval), a sensitive strain reared indoors.
as §1
Experimental method: the activity of the mixture against the adult Tetranychus cinnabarinus (Boisduval) was determined by adopting the potted-seedling spraying method. First, the adult Tetranychus cinnabarinus of uniform size were transferred onto the leaves of kidney bean seedlings at the stage when the first pair of true leaves was fully expanded. After the adult mites had stabilized, the base number was counted. Then, the uniform spraying was performed with the pesticide solution in the order from low to high dose according to the experimental design, with 1.5 mL for each seedling and 3 replicates for each treatment. […]
(§2) The treated test materials were placed in an observation room, and the temperature, humidity and illumination of the observation room could be adjusted as needed. […] Then, the co-toxicity coefficient of each ratio was calculated using the Sun Y-P method to evaluate the mixing effect, as in Example 1.

[5] = test system: 3rd-instar larvae of Chilo suppressalis (Walker); assay: Joint toxicity of I-72 + methoxyfenozide, Example 53, Table 53; details: A = compound I-72, B = methoxyfenozide, rice stem dipping, 72 hours, read-out: LC50
Description: Test target: 3rd-instar larvae of Chilo suppressalis (Walker).
as §1
Experimental method: first, tender rice stems were selected and dipped in the prepared pesticide solution for 10 s in the order from low dosage to high dosage according to the experimental design. After natural air-drying in the shade, they were placed in a 9-cm-diameter Petri dish with filter paper, and uniform and healthy test insects were introduced, with 10 insects for each treatment and 3 replicates for each treatment. In addition, a blank control was set up.
as §2, with “needed. The number of dead and live insects was investigated 72 hours later.” for “needed.”, “effect (the same” for “effect,”, “1).” for “1.”

## CN(C(=O)c1ccc2c(c1)OC(F)(F)O2)c1cccc(C(=O)Nc2c(Br)cc(C(F)(C(F)(F)F)C(F)(F)F)cc2OC(F)F)c1F [Compound I-72]
[1]
  LC50: 0.811 µg/mL
[2]
  LC50: 2.97 µg/mL
[3]
  LC50: 249 µg/mL
[4]
  LC50: 34.1 µg/mL
[5]
  LC50: 1.02 µg/mL

— patent US20260198495A1, “BINARY INSECTICIDE COMPOSITION AND USE THEREOF” (SHENYANG SINOCHEM AGROCHEMICALS R & D CO., LTD., priority 2022, published 2026)
